Measurements as given in article PMC7782793, “Hydroxamic acid-modified peptide microarrays for profiling isozyme-selective interactions and inhibition of histone deacetylases” (Nature Communications, 2021).
“And” between values parts separate entries of the source, which are not always exact repeats. Equal values may be shown once. Marks after values point to notes of the source that are not given here. Non-standard residues stand in square brackets, D forms with d. Residues, ends and D or L forms follow the SMILES beside them. *: point of attachment. Asu = N[C@@H](CCCCCC(=O)O)C(=O)O; NHOH = ON*

What was measured:
HDAC3/NCoR2 [1] = target: T1, HDAC3/NCoR2 (Homo sapiens, UniProt O15379); assay: HDAC inhibition assay (fluorogenic, Ac-Leu-Gly-Lys(Ac)-AMC); format: biochemical; conditions: for HDAC3 dose-response data (relative enzyme activity), Fig. 6 + S. Fig. 10: duplicate columns
T1 construct: HDAC3/NCoR2 (full length, C-terminal His tag, NCoR2 N-terminal GST tag); purchased BPS Bioscience 50003

HDAC1 = target: T2, HDAC1 (Homo sapiens, UniProt Q13547); assay: as above; format: biochemical; conditions: for HDAC1 dose-response data (relative enzyme activity), Fig. 6 + S. Fig. 10: duplicate columns
T2 construct: HDAC1 (full length, C-terminal His tag, C-terminal FLAG tag, BPS Bioscience, cat. #: 50051); FLAG (C); purchased BPS Bioscience 50051

HDAC6 = target: T3, HDAC6 (Homo sapiens, UniProt Q9UBN7); assay: as above; format: biochemical; conditions: HDAC6, replicates
T3 construct: HDAC6 (full length, BPS Bioscience, cat. #: 50056); purchased BPS Bioscience 50056
T3 sequence (Q9UBN7 1-1215): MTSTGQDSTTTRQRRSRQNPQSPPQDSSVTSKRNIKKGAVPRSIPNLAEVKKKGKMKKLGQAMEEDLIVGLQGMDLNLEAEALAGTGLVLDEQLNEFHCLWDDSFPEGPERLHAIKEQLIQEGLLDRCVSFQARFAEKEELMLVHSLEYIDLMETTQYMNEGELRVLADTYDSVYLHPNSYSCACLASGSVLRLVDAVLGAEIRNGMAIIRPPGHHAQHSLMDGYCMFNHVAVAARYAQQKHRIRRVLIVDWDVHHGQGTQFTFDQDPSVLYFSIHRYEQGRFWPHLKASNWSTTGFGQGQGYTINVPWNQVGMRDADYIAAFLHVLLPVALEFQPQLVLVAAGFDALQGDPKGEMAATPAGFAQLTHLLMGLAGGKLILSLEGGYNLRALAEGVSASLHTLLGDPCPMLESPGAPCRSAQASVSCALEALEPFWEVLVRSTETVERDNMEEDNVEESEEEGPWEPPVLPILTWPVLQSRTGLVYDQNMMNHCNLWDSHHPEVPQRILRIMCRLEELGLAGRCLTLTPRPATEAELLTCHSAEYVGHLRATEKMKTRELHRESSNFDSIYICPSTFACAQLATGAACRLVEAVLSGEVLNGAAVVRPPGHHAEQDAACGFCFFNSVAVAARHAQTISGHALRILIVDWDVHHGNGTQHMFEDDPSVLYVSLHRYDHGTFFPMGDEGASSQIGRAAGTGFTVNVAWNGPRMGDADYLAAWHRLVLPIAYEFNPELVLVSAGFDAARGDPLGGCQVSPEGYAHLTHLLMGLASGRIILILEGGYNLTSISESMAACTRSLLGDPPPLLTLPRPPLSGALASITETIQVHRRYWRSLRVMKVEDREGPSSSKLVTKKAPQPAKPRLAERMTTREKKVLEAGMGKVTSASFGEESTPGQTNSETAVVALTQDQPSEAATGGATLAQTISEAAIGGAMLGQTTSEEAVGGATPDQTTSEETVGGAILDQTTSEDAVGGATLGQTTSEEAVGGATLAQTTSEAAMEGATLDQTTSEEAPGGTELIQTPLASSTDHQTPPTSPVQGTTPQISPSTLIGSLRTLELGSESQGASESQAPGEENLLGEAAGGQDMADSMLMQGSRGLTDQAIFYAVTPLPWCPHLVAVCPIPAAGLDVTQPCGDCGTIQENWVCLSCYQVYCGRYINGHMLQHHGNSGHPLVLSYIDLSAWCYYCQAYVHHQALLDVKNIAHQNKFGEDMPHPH

HDAC3/NCoR2 [2] = target: T1, HDAC3/NCoR2; assay: Recombinant HDAC µSPOT microarray binding assay;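 further: peptide spots on cellulose slides incubated with rising HDAC enzyme concentrations, imaged together, four-parameter logistic fit, EC50 is enzyme concentration giving half-maximal binding signal, two experiments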
HDAC2 = target: T4, HDAC2 (Homo sapiens, UniProt Q92769); assay: Recombinant HDAC µSPOT microarray binding assay;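 further: Cellulose-bound peptide spots on slides incubated with six HDAC enzyme concentrations, binding intensity read, four-parameter variable-slope fit, EC50 is enzyme concentration giving half-maximal binding, in HEPES buffer pH 7.4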
T4 construct: HDAC2 (full length, C-terminal His tag, BPS Bioscience, cat. #: 50002); purchased BPS Bioscience 50002

HDAC8 = target: T5, HDAC8 (Homo sapiens, UniProt Q9BY41); assay: Recombinant HDAC µSPOT microarray binding assay;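 further: peptide µSPOT slides incubated with varying HDAC enzyme concentrations, imaged signal intensity fitted by four-parameter variable-slope regression, EC50 is enzyme concentration giving half-maximal binding, pH 7.4 HEPES buffer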
T5 construct: HDAC8 (full length, C-terminal His tag, BPS Bioscience, cat. #: 50008); purchased BPS Bioscience 50008
T5 sequence (Q9BY41 1-377): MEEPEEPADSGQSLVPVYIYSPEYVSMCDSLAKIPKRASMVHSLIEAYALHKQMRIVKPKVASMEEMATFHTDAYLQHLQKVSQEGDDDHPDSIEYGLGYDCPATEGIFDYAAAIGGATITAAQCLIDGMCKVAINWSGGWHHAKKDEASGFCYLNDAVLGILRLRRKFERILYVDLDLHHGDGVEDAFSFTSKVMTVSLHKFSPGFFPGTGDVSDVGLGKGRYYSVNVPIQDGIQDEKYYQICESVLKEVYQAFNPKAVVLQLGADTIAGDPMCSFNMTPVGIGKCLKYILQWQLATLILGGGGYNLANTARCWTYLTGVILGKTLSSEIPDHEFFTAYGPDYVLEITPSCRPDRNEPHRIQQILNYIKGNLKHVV

[3] = log[inhibitor(M)] -10,5850266520292*, whole line marked with asterisks

T2 sequence (Q13547 whole entry): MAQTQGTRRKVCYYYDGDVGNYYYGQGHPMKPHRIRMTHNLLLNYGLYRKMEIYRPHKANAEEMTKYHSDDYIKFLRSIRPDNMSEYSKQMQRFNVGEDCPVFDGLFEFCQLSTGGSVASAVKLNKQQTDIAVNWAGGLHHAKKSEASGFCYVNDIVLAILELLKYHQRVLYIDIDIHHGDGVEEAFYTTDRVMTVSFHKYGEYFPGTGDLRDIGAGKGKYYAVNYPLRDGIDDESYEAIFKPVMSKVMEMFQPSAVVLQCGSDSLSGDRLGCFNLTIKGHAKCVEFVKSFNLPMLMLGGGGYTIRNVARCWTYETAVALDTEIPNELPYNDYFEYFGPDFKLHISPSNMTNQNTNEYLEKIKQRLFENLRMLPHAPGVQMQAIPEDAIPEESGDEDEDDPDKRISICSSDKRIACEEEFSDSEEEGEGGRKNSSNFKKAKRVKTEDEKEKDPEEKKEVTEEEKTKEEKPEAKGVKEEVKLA
T1 sequence (O15379 whole entry): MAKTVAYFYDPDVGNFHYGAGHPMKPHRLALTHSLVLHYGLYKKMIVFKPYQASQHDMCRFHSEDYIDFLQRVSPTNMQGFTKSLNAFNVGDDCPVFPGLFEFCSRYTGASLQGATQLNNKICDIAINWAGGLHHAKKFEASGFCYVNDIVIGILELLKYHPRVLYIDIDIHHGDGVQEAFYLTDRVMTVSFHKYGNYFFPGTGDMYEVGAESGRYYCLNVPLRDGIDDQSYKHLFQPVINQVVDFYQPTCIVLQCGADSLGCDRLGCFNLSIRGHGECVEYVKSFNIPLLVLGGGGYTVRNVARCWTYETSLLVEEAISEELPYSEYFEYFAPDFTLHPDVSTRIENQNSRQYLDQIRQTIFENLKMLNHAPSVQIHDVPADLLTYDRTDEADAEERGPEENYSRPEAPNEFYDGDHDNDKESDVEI
T1 sequence (Q9Y618 389-480 partner limits assumed): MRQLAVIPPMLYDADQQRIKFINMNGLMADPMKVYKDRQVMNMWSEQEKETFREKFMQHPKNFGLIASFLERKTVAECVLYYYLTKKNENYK
T4 sequence (Q92769 whole entry): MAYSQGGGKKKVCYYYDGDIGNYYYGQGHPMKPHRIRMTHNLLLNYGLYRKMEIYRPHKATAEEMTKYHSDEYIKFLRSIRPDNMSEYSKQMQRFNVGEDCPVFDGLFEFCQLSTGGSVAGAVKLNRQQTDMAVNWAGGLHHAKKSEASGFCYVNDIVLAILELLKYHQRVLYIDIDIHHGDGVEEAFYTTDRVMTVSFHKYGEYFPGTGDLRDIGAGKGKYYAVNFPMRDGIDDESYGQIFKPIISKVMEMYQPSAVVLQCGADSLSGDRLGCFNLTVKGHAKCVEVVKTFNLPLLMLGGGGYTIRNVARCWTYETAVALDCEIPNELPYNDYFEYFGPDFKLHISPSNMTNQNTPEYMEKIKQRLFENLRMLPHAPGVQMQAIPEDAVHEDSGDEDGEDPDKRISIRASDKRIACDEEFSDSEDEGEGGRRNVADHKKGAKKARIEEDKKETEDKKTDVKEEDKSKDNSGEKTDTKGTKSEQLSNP

## CC[C@H](C)[C@H](NC(=O)[C@H](CCC(=O)O)NC(=O)[C@H](CCCNC(=N)N)NC(=O)[C@H](CO)NC(=O)[C@@H](NC(=O)[C@@H](NC(=O)[C@@H](NC(=O)[C@H](CO)NC(=O)[C@H](CCCNC(=N)N)NC(=O)[C@H](CCCCCC(=O)NO)NC(=O)[C@H](CC(N)=O)NC(=O)[C@H](Cc1ccc(O)cc1)NC(=O)[C@H](Cc1c[nH]cn1)NC(C)=O)[C@@H](C)O)[C@@H](C)CC)[C@@H](C)O)C(=O)N[C@@H](CCC(N)=O)C(=O)N[C@H](C(=O)N[C@@H](C)C(=O)N[C@@H](Cc1c[nH]c2ccccc12)C(N)=O)[C@@H](C)O [12a] (Ac-HYN[Asu](NHOH)RSTITSREIQTAW-NH2)
HDAC3/NCoR2 [1]; log[inhibitor(M)] -9.89279
  HDAC3 dose-response data (relative enzyme activity), Fig. 6 + S. Fig. 10: 95.5729 and 96.0845
HDAC3/NCoR2 [1]; [3]
  HDAC3 dose-response data (relative enzyme activity), Fig. 6 + S. Fig. 10: 103,997369* and 102,157851*
HDAC3/NCoR2 [1]; resynthesized peptides, from Ki
  selectivity for HDAC3 vs. HDACs 1 and 2: ~ 2 fold
HDAC1
  Ki: 27.1 ± 0.1 nM
HDAC1; log[inhibitor(M)] -4.30103
  HDAC1 dose-response data (relative enzyme activity), Fig. 6 + S. Fig. 10: 0.9347 and 0.662
HDAC1; log[inhibitor(M)] -5
  HDAC1 dose-response data (relative enzyme activity), Fig. 6 + S. Fig. 10: 2.038 and 1.878
HDAC1; log[inhibitor(M)] -5.69897
  HDAC1 dose-response data (relative enzyme activity), Fig. 6 + S. Fig. 10: 7.98 and 7.034
HDAC1; log[inhibitor(M)] -6.39794
  HDAC1 dose-response data (relative enzyme activity), Fig. 6 + S. Fig. 10: 27.0557 and 22.8999
HDAC1; log[inhibitor(M)] -7.09691
  HDAC1 dose-response data (relative enzyme activity), Fig. 6 + S. Fig. 10: 60.7171 and 55.9643
HDAC1; log[inhibitor(M)] -7.79588
  HDAC1 dose-response data (relative enzyme activity), Fig. 6 + S. Fig. 10: 89.3741 and 84.8138
HDAC1; log[inhibitor(M)] -8.49485
  HDAC1 dose-response data (relative enzyme activity), Fig. 6 + S. Fig. 10: 97.3199 and 95.6638
HDAC1; log[inhibitor(M)] -9.19382
  HDAC1 dose-response data (relative enzyme activity), Fig. 6 + S. Fig. 10: 101.477 and 97.552
HDAC1; log[inhibitor(M)] -9.89279
  HDAC1 dose-response data (relative enzyme activity), Fig. 6 + S. Fig. 10: 101.081 and 96.9441
HDAC1; [3]
  HDAC1 dose-response data (relative enzyme activity), Fig. 6 + S. Fig. 10: 100,220716* and 99,6623992*
HDAC6; log[inhibitor(M)] -4.30103
  residual enzymatic activity relative to control wells: 1.727 and 0.8308
HDAC6; log[inhibitor(M)] -5
  residual enzymatic activity relative to control wells: 2.004 and 3.233
HDAC6; log[inhibitor(M)] -5.69897
  residual enzymatic activity relative to control wells: 5.047 and 6.177
HDAC6; log[inhibitor(M)] -6.39794
  residual enzymatic activity relative to control wells: 15.6412 and 12.824
HDAC6; log[inhibitor(M)] -7.09691
  residual enzymatic activity relative to control wells: 40.6476 and 34.5345
HDAC6; log[inhibitor(M)] -7.79588
  residual enzymatic activity relative to control wells: 71.7467 and 73.0064
HDAC6; log[inhibitor(M)] -8.49485
  residual enzymatic activity relative to control wells: 80.6815 and 89.6415
HDAC6; log[inhibitor(M)] -9.19382
  residual enzymatic activity relative to control wells: 82.3274 and 88.4313
HDAC6; log[inhibitor(M)] -9.89279
  residual enzymatic activity relative to control wells: 83.6621 and 89.4789
HDAC6; log[inhibitor(M)] -10.585
  residual enzymatic activity relative to control wells: 102.86 and 101.255
HDAC3/NCoR2 [2]
  EC50: 2.57 nM
HDAC2
  EC50: > 25.1 nM
HDAC8
  EC50: > 25.1 nM
